The text below walks through data of US8193237B2, “Indole derivative having IκB kinase β inhibitory activity” (Santen Pharmaceutical Co., Ltd., priority 2007, dated 2012).

This assay addresses T1, IKKβ (Homo sapiens, UniProt O14920).
T1 construct: purchased Upstate Biotechnology Inc. 14-485
T1 sequence (O14920 1-756): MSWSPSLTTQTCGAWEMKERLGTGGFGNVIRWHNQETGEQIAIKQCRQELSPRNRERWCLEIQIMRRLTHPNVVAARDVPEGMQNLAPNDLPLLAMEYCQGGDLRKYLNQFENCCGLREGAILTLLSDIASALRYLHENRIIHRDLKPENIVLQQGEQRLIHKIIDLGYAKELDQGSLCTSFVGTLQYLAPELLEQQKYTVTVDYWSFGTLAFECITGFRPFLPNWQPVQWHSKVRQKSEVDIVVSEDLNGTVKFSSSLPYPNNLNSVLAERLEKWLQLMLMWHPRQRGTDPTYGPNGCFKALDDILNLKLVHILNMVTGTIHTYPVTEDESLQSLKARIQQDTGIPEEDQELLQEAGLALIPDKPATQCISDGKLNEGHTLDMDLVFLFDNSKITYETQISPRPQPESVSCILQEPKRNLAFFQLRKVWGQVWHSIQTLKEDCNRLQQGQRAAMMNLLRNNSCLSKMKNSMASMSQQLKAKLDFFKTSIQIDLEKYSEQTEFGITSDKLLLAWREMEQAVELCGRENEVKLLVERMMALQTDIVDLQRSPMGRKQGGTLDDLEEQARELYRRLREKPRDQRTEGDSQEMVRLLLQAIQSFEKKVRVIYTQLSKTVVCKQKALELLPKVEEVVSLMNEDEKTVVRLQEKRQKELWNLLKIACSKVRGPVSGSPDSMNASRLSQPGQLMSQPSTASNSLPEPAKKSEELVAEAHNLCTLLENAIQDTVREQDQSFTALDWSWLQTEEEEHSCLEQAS
The experiment in a line: IKKβ inhibition assay by fluorescence polarization (IMAP kit). To be noted: test compound at 1 μM; inhibition rate exceeding 100% is indicated as 100%. The class given is biochemical. As to the method: In order to evaluate IKKβ inhibitory activity of the present compounds, an IKKβ inhibition assay by the fluorescence polarization method was conducted.
The assay was conducted using IMAP™ IKKβ assay kit (manufactured by Molecular Devices Corporation, catalogue No. R8115) or IMAP™ FP Screening Express kit (manufactured by Molecular Devices Corporation, catalogue No. R8127) and in accordance with the protocol attached to each kit. The specific methods are described below. (Preparation of Reagents)
1) Complete Reaction Buffer: a complete reaction buffer was so prepared as to obtain a final concentration of 10 mM Tris-HCL (pH 7.2), 10 mM magnesium chloride, 0.1% bovine serum albumin, and 1 mM dithiothreitol.
2) Substrate Working Solution: 400 nM of a substrate working solution was prepared by dissolving and diluting a fluorescein-labeled IKKβ substrate peptide (amino acid sequence: GRHDSGLDSMK) with the complete reaction buffer.
3) Enzyme Working Solution: 0.2 units/mL of an enzyme working solution was prepared by diluting IKKβ solution (manufactured by Upstate Biotechnology Inc., catalogue No. 14-485) with the complete reaction buffer.
4) ATP Working Solution: 8 μM of an ATP working solution was prepared by dissolving ATP into ultrapure water followed by diluting it with the complete reaction buffer.
5) IMAP binding solution: After diluting an IMAP binding buffer with ultrapure water, an IMAP binding solution was prepared by diluting an IMAP binding reagent with the diluted IMAP binding buffer.
A test compound was dissolved in dimethylsulfoxide followed by diluting it with the complete reaction buffer to prepare 4 μM of a test compound solution.
1) To a 384-well plate, the test compound solution, the enzyme working solution, the substrate working solution, and the ATP working solution were added in an amount of 5 μL per well.
2) Incubation was performed at a room temperature for 60 minutes under light shielding.
3) The IMAP binding solution was added in an amount of 60 μL per well.
4) Incubation was performed at a room temperature for 30 minutes under light shielding.
5) Fluorescence polarization value of each well was measured by using Analyst™ HT (multimode plate reader manufactured by Molecular Devices Corporation) and Criterion Host Software v2.00 (manufactured by Molecular Devices Corporation).
6) Operations were performed in the same manner as in 1) to 5) except for changing the test compound to 0.4% dimethylsulfoxide. The obtained result was designated as a control.
7) Operations were performed in the same manner as in 1) to 5) except for changing the test compound and the enzyme working solution to 0.4% dimethylsulfoxide and the complete reaction buffer, respectively. The obtained result was designated as a background.
An IKKβ inhibition rate (%) was calculated by the following equation.
IKKβ inhibition rate (%)=100×{1−(fluorescence polarization value of test compound−fluorescence polarization value of background)/(fluorescence polarization value of control−fluorescence polarization value of background)}
On the technique in general: Fluorescence polarisation rises when a labelled molecule tumbles more slowly, as on binding a larger partner.

In general, inhibition refers to the drop in the measured response relative to a control, in per cent. Low readings indicate a weak effect, high ones a strong effect. Consider `COC/C=C/c1ccc2c(C(N)=O)c(NC(N)=O)[nH]c2c1` [Compound 4-58, 2-Aminocarbonylamino-6-[(E)-3-methoxy-1-propenyl]indole-3-carboxamide], for which 1 µM produced 99% inhibition.
With `NC(=O)Nc1[nH]c2cc(-c3cnc4ccccc4c3)ccc2c1C(N)=O` [Compound 4-36, 2-Aminocarbonylamino-6-(quinolin-3-yl)indole-3-carboxamide], the inhibition at 1 µM was determined as 99%.
`Cc1ccc2[nH]c(NC(N)=O)c(C(N)=O)c2c1` [Compound 1-2, 2-Aminocarbonylamino-5-methylindole-3-carboxamide] had an inhibition at 1 µM of 55%.
Molecule `NC(=O)Nc1[nH]c2ccccc2c1C(N)=O` [Compound 2-10, 2-Aminocarbonylaminoindole-3-carboxamide] yielded an inhibition at 1 µM of 75%.
The molecule `Cc1c(Br)ccc2c(C(N)=O)c(NC(N)=O)[nH]c12` [Compound 2-11, 2-Aminocarbonylamino-6-bromo-7-methylindole-3-carboxamide] yielded an inhibition at 1 µM of 96%.
Consider `CN(C)CC#Cc1ccc2c(C(N)=O)c(NC(N)=O)[nH]c2c1` [Compound 9-18, 2-Aminocarbonylamino-6-(3-dimethylamino-1-propynyl) indole-3-carboxamide], for which 1 µM produced 94% inhibition.
Take `CN(C)CCCc1ccc2c(C(N)=O)c(NC(N)=O)[nH]c2c1` [Compound 11-8, 2-Aminocarbonylamino-6-(3-dimethylaminopropyl) indole-3-carboxamide]: the inhibition at 1 µM came out at 95%.
To `NC(=O)Nc1[nH]c2cc(-c3ccsc3)ccc2c1C(N)=O` [Compound 4-18, 2-Aminocarbonylamino-6-(thiophen-3-yl)indole-3-carboxamide] belongs 98%.
As to `CCC/C=C/c1ccc2c(C(N)=O)c(NC(N)=O)[nH]c2c1` [Compound 4-67, 2-Aminocarbonylamino-6-[(E)-1-pentenyl]indole-3-carboxamide], the inhibition at 1 µM turned out to be 94%.
The molecule `NC(=O)Nc1[nH]c2cc(-c3ccncc3)ccc2c1C(N)=O` [Compound 7-9] had an inhibition at 1 µM of 98%.
To `CCSCc1ccc2c(C(N)=O)c(NC(N)=O)[nH]c2c1` [Compound 25-3] belongs 100%; to `CCc1ccc2c(C(N)=O)c(NC(N)=O)[nH]c2c1` [Compound 11-1, 2-Aminocarbonylamino-6-ethylindole-3-carboxamide], 95%; to `NC(=O)Nc1[nH]c2cc(Br)ccc2c1C(N)=O` [Compound 3-1, 2-Aminocarbonylamino-6-bromoindole-3-carboxamide], 100%.
In turn, `CNCc1ccc(-c2ccc3c(C(N)=O)c(NC(N)=O)[nH]c3c2)s1` [Compound 13-24, 2-Aminocarbonylamino-6-(5-methylaminomethylthiophen-2-yl)indole-3-carboxamide] showed an inhibition at 1 µM of 98%.
In turn, `COc1cc(-c2ccc3c(C(N)=O)c(NC(N)=O)[nH]c3c2)ccc1CO` [Compound 7-14] registered an inhibition at 1 µM of 100%.
`NC(=O)Nc1[nH]c2cc(-c3ccoc3)ccc2c1C(N)=O` [Compound 4-22, 2-Aminocarbonylamino-6-(furan-3-yl)indole-3-carboxamide] yielded an inhibition at 1 µM of 100%.
To `NC(=O)Nc1[nH]c2cc(-c3cccs3)ccc2c1C(N)=O` [Compound 4-8, 2-Aminocarbonylamino-6-(thiophen-2-yl)indole-3-carboxamide] belongs 100%; to `NC(=O)Nc1[nH]c2cc(-c3ccc(F)cc3)ccc2c1C(N)=O` [Compound 4-1, 2-Aminocarbonylamino-6-(4-fluorophenyl)indole-3-carboxamide], 97%.
For `NC(=O)Nc1[nH]c2cc(C3SCCS3)ccc2c1C(N)=O` [Compound 20-1, 2-Aminocarbonylamino-6-(1,3-dithiolan-2-yl)indole-3-carboxamide], the inhibition at 1 µM is 100%.
`C#Cc1ccc2c(C(N)=O)c(NC(N)=O)[nH]c2c1` [Compound 10-1, 2-aminocarbonylamino-6-ethynylindole-3-carboxamide] came in with an inhibition at 1 µM of 100%.
In turn, `CS(=O)(=O)Nc1cccc(-c2ccc3c(C(N)=O)c(NC(N)=O)[nH]c3c2)c1` [Compound 4-17, 2-Aminocarbonylamino-6-(3-methylsulfonylaminophenyl)indole-3-carboxamide] had an inhibition at 1 µM of 100%.
`COC(=O)c1ccc2c(C(N)=O)c(NC(N)=O)[nH]c2c1` [Compound 2-17, 2-aminocarbonylamino-6-methoxycarbonylindole-3-carboxamide] gave an inhibition at 1 µM of 100%.
Consider `NC(=O)Nc1[nH]c2cc(-c3ccco3)ccc2c1C(N)=O` [Compound 4-19, 2-Aminocarbonylamino-6-(furan-2-yl)indole-3-carboxamide], for which testing at 1 µM gave an inhibition of 100%.
To `NC(=O)Nc1[nH]c2cc(C#Cc3ccccc3)ccc2c1C(N)=O` [Compound 9-1, 2-Aminocarbonylamino-6-phenylethynylindole-3-carboxamide] belongs 87%.
In turn, `NC(=O)Nc1[nH]c2cc(C(F)(F)F)ccc2c1C(N)=O` [Compound 2-16, 2-Aminocarbonylamino-6-trifluoromethylindole-3-carboximide] yielded an inhibition at 1 µM of 95%.
In turn, `NCc1ccc(-c2ccc3c(C(N)=O)c(NC(N)=O)[nH]c3c2)cc1` [Compound 8-3] had an inhibition at 1 µM of 100%.
`NC(=O)Nc1[nH]c2cc(-c3ccc4[nH]ccc4c3)ccc2c1C(N)=O` [Compound 4-65, 2-Aminocarbonylamino-6-(indol-5-yl)indole-3-carboxamide] returned an inhibition at 1 µM of 100%.
`COCCCc1ccc2c(C(N)=O)c(NC(N)=O)[nH]c2c1` [Compound 11-10, 2-Aminocarbonylamino-6-(3-methoxypropyl)indole-3-carboxamide] showed an inhibition at 1 µM of 94%.
As for `NC(=O)Nc1[nH]c2cc(-c3cccc(F)c3)ccc2c1C(N)=O` [Compound 4-11, 2-Aminocarbonylamino-6-(3-fluorophenyl)indole-3-carboxamide], at 1 µM the inhibition was 100%.
With `NC(=O)Nc1[nH]c2cc(-c3cccc(CNCCO)c3)ccc2c1C(N)=O` [Compound 13-13, 2-Aminocarbonylamino-6-[3-(2-hydroxyethylaminomethyl)phenyl]indole-3-carboxamide] the figure was 100%.
